Structures can show the parent of a compound that is named as a salt.
Columns and labels:
[1] = Stability of vancomycin hydrochloride powder in bottle (HPLC or cylinder plate analysis); settings: for μg/mg vancomycin hydrochloride powder: Ex. 1, 10 g powder in HDPE bottle; for % Vancomycin B / % other impurities / % Monodechlorovancomycin: Ex. 1 powder in bottle; for Monodechlorovancomycin / Other Impurities / Vancomycin / Vancomycin B: Ex. 4, 15.38 g powder in bottle
Description: Stability may be assessed by cylinder-plate assay (the cylinder plate assay depends on the diffusion of the antibiotic from a vertical cylinder through a solidified agar layer in a petri dish or plate. The growth of the specific microorganisms inoculated into the agar is prevented in a circular area or zone around the cylinder containing the solution of the antibiotic), HPLC or any other known testing method.
The stability of vancomycin hydrochloride powder was evaluated. […] At various time points the powder in the bottle was analyzed for vancomycin hydrochloride, vancomycin B, other impurities, and monodechlorovancomycin by HPLC or cylinder plate analysis.
Vancomycin hydrochloride was further investigated in stability studies. […] At each given time point, vancomycin hydrochloride, vancomycin B, other impurities, and monodechlorovancomycin were assayed by HPLC or total microbiological activity was assessed by cylinder plate analysis.

[2] = 289 mL solution component + 15.38 g powder, shaken 30 seconds
[3] = Ex. 4, 3 months accelerated and ambient

**Q.** Which results are given for `CN[C@H](CC(C)C)C(=O)N[C@H]1C(=O)N[C@@H](CC(N)=O)C(=O)N[C@H]2C(=O)NC3C(=O)N[C@H](C(=O)N[C@H](C(=O)O)c4cc(O)cc(O)c4-c4cc3ccc4O)[C@H](O)c3ccc(c(Cl)c3)Oc3cc2cc(c3OC2OC(CO)C(O)C(O)C2OC2CC(C)(N)C(O)C(C)O2)Oc2ccc(cc2Cl)[C@H]1O` (some centres unmarked) [vancomycin hydrochloride powder, vancomycin hydrochloride]?
**A.** μg/mg vancomycin hydrochloride powder ([1]; 40° C./75% RH, 0 months): 1067 µg/mg; μg/mg vancomycin hydrochloride powder ([1]; 40° C./75% RH, 1 month): 1076 µg/mg; μg/mg vancomycin hydrochloride powder ([1]; 40° C./75% RH, 2 months): 1097 µg/mg; μg/mg vancomycin hydrochloride powder ([1]; 40° C./75% RH, 3 months): 1094 µg/mg; μg/mg vancomycin hydrochloride powder ([1]; 40° C./75% RH, 6 months): 1137 µg/mg; powder in bottle stability ([1]; Ex. 1, ambient and accelerated conditions (25° C./60% RH and 40°/75% RH)): stable; % Vancomycin B ([1]; 25° C./60% (RH), 0 months): 93.03%; % other impurities ([1]; 25° C./60% (RH), 0 months): <5.0% for all other; % Vancomycin B ([1]; 25° C./60% (RH), 3 months): 92.19%; % other impurities ([1]; 25° C./60% (RH), 3 months): <5.0% for all other; % Vancomycin B ([1]; 25° C./60% (RH), 6 months): 92.04%; % other impurities ([1]; 25° C./60% (RH), 6 months): <5.0% for all other; % Vancomycin B ([1]; 25° C./60% (RH), 9 months): 89.34%; % other impurities ([1]; 25° C./60% (RH), 9 months): <5.0% for all other; % Vancomycin B ([1]; 25° C./60% (RH), 12 months): 88.85%; % other impurities ([1]; 25° C./60% (RH), 12 months): <5.0% for all other; % Vancomycin B ([1]; 25° C./60% (RH), 18 months): 90.8%; % other impurities ([1]; 25° C./60% (RH), 18 months): <5.0% for all other; % Vancomycin B ([1]; 40° C./75% RH, 0 months): 93.03%; % other impurities ([1]; 40° C./75% RH, 0 months): <5.0% for all other; % Monodechlorovancomycin ([1]; 40° C./75% RH, 1 month): 1.0%; % Vancomycin B ([1]; 40° C./75% RH, 1 month): 91.87%; % other impurities ([1]; 40° C./75% RH, 1 month): <5.0% for all other; % Monodechlorovancomycin ([1]; 40° C./75% RH, 2 months): 1.3%; % Vancomycin B ([1]; 40° C./75% RH, 2 months): 89.14%; % other impurities ([1]; 40° C./75% RH, 2 months): <5.0% for all other; % Monodechlorovancomycin ([1]; 40° C./75% RH, 3 months): 1.6%; % Vancomycin B ([1]; 40° C./75% RH, 3 months): 88.22%; % other impurities ([1]; 40° C./75% RH, 3 months): <5.0% for all other; % Vancomycin B ([1]; 40° C./75% RH, 6 months): 81.84%; % other impurities ([1]; 40° C./75% RH, 6 months): <5.0% for all other; Monodechlorovancomycin ([1]; 25° C./60% RH, 0 months): 1.5%; Other Impurities ([1]; 25° C./60% RH, 0 months): <5.0% for; Vancomycin ([1]; 25° C./60% RH, 0 months): 1,112 mcg/mg; Vancomycin B ([1]; 25° C./60% RH, 0 months): 94.7%; Monodechlorovancomycin ([1]; 25° C./60% RH, 3 months): 1.1%; Other Impurities ([1]; 25° C./60% RH, 3 months): <5.0% for; Vancomycin ([1]; 25° C./60% RH, 3 months): 1,070 mcg/mg; Vancomycin B ([1]; 25° C./60% RH, 3 months): 91.8%; Monodechlorovancomycin ([1]; 40° C./60% RH, 0 months): 1.5%; Other Impurities ([1]; 40° C./60% RH, 0 months): <5.0% for all; Vancomycin ([1]; 40° C./60% RH, 0 months): 1,112 mcg/mg; Vancomycin B ([1]; 40° C./60% RH, 0 months): 94.7%; Monodechlorovancomycin ([1]; 40° C./60% RH, 1 month): 1.4%; Other Impurities ([1]; 40° C./60% RH, 1 month): <5.0% for all; Vancomycin ([1]; 40° C./60% RH, 1 month): 1,095 mcg/mg; Vancomycin B ([1]; 40° C./60% RH, 1 month): 91.3%; Monodechlorovancomycin ([1]; 40° C./60% RH, 2 months): 1.1%; Other Impurities ([1]; 40° C./60% RH, 2 months): <5.0% for all; Vancomycin ([1]; 40° C./60% RH, 2 months): 1,108 mcg/mg; Vancomycin B ([1]; 40° C./60% RH, 2 months): 90.8%; Monodechlorovancomycin ([1]; 40° C./60% RH, 3 months): 1.0%; Other Impurities ([1]; 40° C./60% RH, 3 months): <5.0% for all; Vancomycin ([1]; 40° C./60% RH, 3 months): 1,095 mcg/mg; Vancomycin B ([1]; 40° C./60% RH, 3 months): 87.6%; Monodechlorovancomycin, not exceeded [1, 3]: ≤ 4.7%; other impurities, not exceeded [1, 3]: ≤ 5.0%; powder stability ([1]; Ex. 4, accelerated and ambient (25±2° C./60±5% RH) conditions): remained stable through 3 months under accelerated stability conditions and 3 months under ambient; dissolution of powder in the solution component [2]: easily dissolves in the solution component
